Reference: patent publication US20190100519A1, “HYDROCHLORIDE SALT CRYSTAL OF DRUG FOR TREATING OR PREVENTING JAK-ASSOCIATED DISEASE AND PREPARATION METHOD THEREOF” (CRYSTAL PHARMATECH CO., LTD., priority 2016, published 2019)
Values after ≈ are worked out from the molar mass of the structure shown. Where two headings read alike, the source gives them in different places.

Columns and labels:
[1] = Particle size comparison experiment (laser particle size analyzer); format: physicochemical; details: wet method, Isopar G
Protocol: Wet method was used and Isopar G was used as the dispersion medium. [table] The particle size distributions of obtained Form A (example 2), Form B (example 4), Form C (example 5), Form D (example 8) and the reference form were measured.

[2] = Solubility assessment (saturated solutions, HPLC); format: physicochemical; details: for solubility at 1 h / solubility at 4 h: thermodynamic from solid
Protocol: The concentration of the saturated solutions was measured through HPLC after 1 hour and 4 hours.

[3] = clinical trials; cited from earlier work
[4] = Slurry experiment in different water activities (XRPD); format: physicochemical
Protocol: The samples were centrifuged after 48 hours, and tested by XRPD.

[5] = Stability assessment of Form A (storage, XRPD); format: physicochemical; details: two weeks
Protocol: 5 samples (10.0 mg each) of Form A obtained from example 2 was stored at 5° C., 25° C./60% RH, 40° C./75% RH, 60° C./75% RH and 80° C. for two weeks, then XRPD test was performed after one week and two weeks. The results are depicted in FIG. 6 and FIG. 7. FIG. 6 is the XRPD overlay of one-week stability, and the patterns from top to bottom are initial Form A, and Form A after storing at 25° C./60% RH, 40° C./75% RH, 60° C./75% RH, 80° C. for one week, respectively. FIG. 7 is the XRPD overlay of two-week stability, and the patterns from top to bottom are initial Form A, and Form A after storing at 25° C./60% RH, 40° C./75% RH, 60° C./75% RH and 80° C. for two weeks, respectively.

[6] = simulated gastric fluid, Solubility SGF

D10 [1] [μm]	D50 [1] [μm]	D90 [1] [μm]	MV (average particle size calculated by volume) [1] [μm]	Solubility SGF ([2]; 1 h) [µg/mL]	Solubility Water ([2]; 1 h) [µg/mL]	Solubility SGF ([2]; 4 h) [µg/mL]	Solubility Water ([2]; 4 h) [µg/mL]	Compound	solubility compared with reference form [2]	further results
2.53	20.30	110.4	44.66	1450	5020	960	3590	Cl.O=C(Nc1nc2cccc(-c3ccc(CN4CCS(=O)(=O)CC4)cc3)n2n1)C1CC1 [Form B]	higher solubility than the reference form	
1.87	13.57	66.16	29.92	1930	5180	1120	3060	Cl.O=C(Nc1nc2cccc(-c3ccc(CN4CCS(=O)(=O)CC4)cc3)n2n1)C1CC1 [Form C]	higher solubility than the reference form	
1.72	8.93	62.08	24.64		1080			Cl.O=C(Nc1nc2cccc(-c3ccc(CN4CCS(=O)(=O)CC4)cc3)n2n1)C1CC1 [Form A]	higher solubility than the reference form	form change (XRPD) after storage ([5]; 5° C.): no form change; form change (XRPD) after storage ([5]; 25° C./60% RH): no form change; form change (XRPD) after storage ([5]; 40° C./75% RH): no form change; form change (XRPD) after storage ([5]; 60° C./75% RH): no form change; form change (XRPD) after storage ([5]; 80° C.): no form change; solubility at 1 h [2, 6]: 1280 µg/mL; solubility at 4 h [2, 6]: 1200 µg/mL; solubility at 4 h ([2]; water, Solubility Water): 2430 µg/mL

Second part, the molecule before the results:

Compound	D10 [1] [μm]	D50 [1] [μm]	D90 [1] [μm]	MV (average particle size calculated by volume) [1] [μm]	Solubility SGF ([2]; 1 h) [µg/mL]	Solubility Water ([2]; 1 h) [µg/mL]	Solubility SGF ([2]; 4 h) [µg/mL]	Solubility Water ([2]; 4 h) [µg/mL]	solubility compared with reference form [2]	further results
Cl.O=C(Nc1nc2cccc(-c3ccc(CN4CCS(=O)(=O)CC4)cc3)n2n1)C1CC1 [Form D]	5.77	25.92	82.42	41.24	2220	3000	1150	2370	higher solubility than the reference form	
O=C(Nc1nc2cccc(-c3ccc(CN4CCS(=O)(=O)CC4)cc3)n2n1)C1CC1 [Filgotinib, N-[5-[4-[(1,1-dioxo-1-thiomorpholin-4-yl)methyl]phenyl][1,2,4]triazole[1,5-a]pyridin-2-yl] cyclopropanecarboxamide]										anemia and abnormal increase in LDL [3]: does not cause an anemia and abnormal increase in LDL
O=C(Nc1nc2cccc(-c3ccc(CN4CCS(=O)(=O)CC4)cc3)n2n1)C1CC1 [Reference form, reference compound]	2.95	6.29	12.35	7.24						Final Form ([4]; H2O/ACN 1:99, water activity 0.2, slurry 48 hours): Form A; Final Form ([4]; H2O/ACN 2:98, water activity 0.4, slurry 48 hours): Form A; Final Form ([4]; H2O/EtOH 2:98, water activity 0.15, slurry 48 hours): Form A; Final Form ([4]; H2O/MeOH 7:93, water activity 0.2, slurry 48 hours): Form A; Final Form ([4]; H2O/MeOH 16:84, water activity 0.4, slurry 48 hours): Form A; stability under low water activity ([4]; low water activity): not stable; solubility at 1 h ([2]; simulated gastric fluid (SGF), simulated gastric fluid, simulated gastric fluid (SGF), 1 h, read-out: Solubility SGF): 70 µg/mL (≈ 165 µM); solubility at 4 h ([2]; simulated gastric fluid (SGF), simulated gastric fluid, simulated gastric fluid (SGF), 4 h, read-out: Solubility SGF): 920 µg/mL (≈ 2160 µM); solubility at 1 h ([2]; water, water, 1 h, read-out: Solubility Water): 810 µg/mL (≈ 1900 µM); solubility at 4 h ([2]; water, water, 4 h, read-out: Solubility Water): 3000 µg/mL (≈ 7050 µM)
